From PubChem BioAssay AID2060624 (Molecular Pharmacology Branch, DTP, NCI, 2025)

Test system: 217524-143-R1-J4-PDC spheroids with HUVEC/MSC, viability
Experiment: Anticancer human tumor 217524-143-R1-J4-PDC patient-derived pancreatic carcinoma cell line growth inhibition [CLK]
Details: for IC50: curve of first compound; for viability, T/C: stronger effect = lower value
Procedure, shortened: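 Multi-cell-type spheroids combined patient-derived tumor cells with HUVEC endothelial cells and human mesenchymal stem cells. Paired agents were dosed in half-log steps down from about clinical Cmax, or from 10 microM where Cmax was unknown.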
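Further: spheroids exposed to agents for seven days before reading.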
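Wherever viability, T/C is given: 100% = DMSO vehicle control viability.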

Work on `C=CC(=O)Nc1cc(Nc2nccc(-c3cn(C)c4ccccc34)n2)c(OC)cc1N(C)CCN(C)C` + CNC(=O)c1ccc(Nc2nc(OC3CCCC3)c3c(-c4ccc5nc(C)oc5c4)c[nH]c3n2)c(OC)c1 yielded an IC50 (second compound 0.0316 µM) of 61.3 nM, an IC50 (second compound 0.1 µM) of under 0.949 nM and an IC50 (second compound 0.316 µM) of under 0.949 nM. The IC50 (second compound 1 µM) was under 0.949 nM, the IC50 (second compound 3.16 µM) was under 0.949 nM and the IC50 (second compound 10 µM) was under 0.949 nM. It also gave a viability, T/C (second compound 0.0316 µM, first compound 0.000949 µM) of 92%, a viability, T/C (second compound 0.0316 µM, first compound 0.003 µM) of 83.9% and a viability, T/C (second compound 0.0316 µM, first compound 0.00949 µM) of 66.6%. The viability, T/C (second compound 0.0316 µM, first compound 0.03 µM) was 64.7%, the viability, T/C (second compound 0.0316 µM, first compound 0.0949 µM) was 41.2% and the viability, T/C (second compound 0.0316 µM, first compound 0.3 µM) was 31.4%. The viability, T/C (second compound 0.1 µM, first compound 0.000949 µM) was 47.9%, the viability, T/C (second compound 0.1 µM, first compound 0.003 µM) was 38.6% and the viability, T/C (second compound 0.1 µM, first compound 0.00949 µM) was 41.9%. It also gave a viability, T/C (second compound 0.1 µM, first compound 0.03 µM) of 31.2%, a viability, T/C (second compound 0.1 µM, first compound 0.0949 µM) of 22% and a viability, T/C (second compound 0.1 µM, first compound 0.3 µM) of 17.1%. The viability, T/C (second compound 0.316 µM, first compound 0.000949 µM) was 39.3%, the viability, T/C (second compound 0.316 µM, first compound 0.003 µM) was 39.4% and the viability, T/C (second compound 0.316 µM, first compound 0.00949 µM) was 34%. It also gave a viability, T/C (second compound 0.316 µM, first compound 0.03 µM) of 28.7%, a viability, T/C (second compound 0.316 µM, first compound 0.0949 µM) of 16% and a viability, T/C (second compound 0.316 µM, first compound 0.3 µM) of 16%. The viability, T/C (second compound 1 µM, first compound 0.000949 µM) was 31.5%, the viability, T/C (second compound 1 µM, first compound 0.003 µM) was 28.3% and the viability, T/C (second compound 1 µM, first compound 0.00949 µM) was 25.9%. For the same molecule, the viability, T/C (second compound 1 µM, first compound 0.03 µM) was 18%, the viability, T/C (second compound 1 µM, first compound 0.0949 µM) was 13.3% and the viability, T/C (second compound 1 µM, first compound 0.3 µM) was 9.6%. The viability, T/C (second compound 3.16 µM, first compound 0.000949 µM) was 31.4%, the viability, T/C (second compound 3.16 µM, first compound 0.003 µM) was 28.3% and the viability, T/C (second compound 3.16 µM, first compound 0.00949 µM) was 24.9%. It also gave a viability, T/C (second compound 3.16 µM, first compound 0.03 µM) of 19.2%, a viability, T/C (second compound 3.16 µM, first compound 0.0949 µM) of 12.5% and a viability, T/C (second compound 3.16 µM, first compound 0.3 µM) of 8.29%. The viability, T/C (second compound 10 µM, first compound 0.000949 µM) was 26.6%, the viability, T/C (second compound 10 µM, first compound 0.003 µM) was 22.3% and the viability, T/C (second compound 10 µM, first compound 0.00949 µM) was 24.7%. It also gave a viability, T/C (second compound 10 µM, first compound 0.03 µM) of 20.1%, a viability, T/C (second compound 10 µM, first compound 0.0949 µM) of 13% and a viability, T/C (second compound 10 µM, first compound 0.3 µM) of 9.91%.
